Experimental data taken from article PMC8533333, “Melatonin Analogues Potently Inhibit MAO-B and Protect PC12 Cells against Oxidative Stress” (Antioxidants, 2021).

Test system: PC12 cells
Conditions: ZnPP 0.2 µM, 6-OHDA 50 µM 24 h
Description: Control cells were incubated in an equivalent volume of DMSO to a final concentration of 0.3%. Neuroprotective effects of the tested compounds on the toxicity induced by 6-OHDA or rotenone in PC12 cells were evaluated as described previously with slight modifications. In brief, cells were pre-treated with the tested compounds or rasagiline at the indicated concentrations for 4 h. Next, they were exposed to 6-OHDA (50 μM) or rotenone (1 μM) for 24 h. In another set of experiments, the influence of HO-1 inhibitor, ZnPP, on the neuroprotective effects of the tested compounds against 6-OHDA-induced oxidative damage was investigated as previously reported. Briefly, the cells were pre-treated with the tested compounds for 4 h and then incubated with 0.2 µM of ZnPP for 30 min. Subsequently, 6-OHDA was added at a final concentration of 50 µM and incubated for 24 h.
After the desired treatment, cell viability was determined by MTT assay as described previously. Briefly, MTT was added to the cells at the final concentration of 0.5 mg/mL, which was followed by incubation for 3 h at 37 °C. […] The absorbance of the dissolved solution was measured at 550 nm using a microplate reader (SpectraMax M2^e, Molecular Devices, Sunnyvale, CA, USA). The cell viability was presented as the percentage of the absorbance measured in the vehicle-treated control cells.

SMILES | effect of ZnPP on protective effects against 6-OHDA-induced toxicity
O=C(Nc1ccc2[nH]ccc2c1)c1cccc(Cl)c1 [3n, 3-Chloro-N-(1H-indol-5-yl)benzamide] | completely abolished
O=C(Nc1ccc2[nH]ccc2c1)c1cccc(Br)c1 [3r, 3-Bromo-N-(1H-indol-5-yl)benzamide] | completely abolished
